Results reported in patent publication US20240197733A1, “A GABA RECEPTOR MODULATOR FOR USE IN THE TREATMENT OF PAIN” (SANIONA A/S, priority 2021, published 2024).

Legend:
[1] = system: electrocutaneous stimulation-induced facial pain rodent model; experiment: ES-induced facial pain model, acute treatment, overall conclusion (mechanical and thermal tests); format: in vivo, Sprague-Dawley rats; conditions: 1, 3 and 10 mg/kg po
From the text: The electrocutaneous stimulation-induced facial pain rodent model is a reproducible orofacial pain model in which depilated cheek area of rats are repeatedly subjected to electrical stimulation. Repeated electrical stimulation at low intensities produces craniofacial pain that mimics the behavioral characteristics of TN such as development of mechanical and thermal allodynia at cheeks despite no visible edema, swelling or excessive injury and tissue damage. Male wild type, Sprague-Dawley rats (Charles River Laboratories) born in-house at […] Research Laboratory between May 24, 2020 to May 28, 2020. […] Compound 1, vehicle and Carbamazepine was administered perorally in doses of 1, 3, and 10 mg/kg (Compound 1) or 30 mg/kg (carbamazepine) and drug effects on pain thresholds were evaluated 2- and 4 hours after drug administration by assessment of mechanical- (von Frey) and thermal hypersensitivity (heat- and cold stimulation respectively). Decrease in ES-induced pain threshold was evaluated 22 hours following electrical stimulation of the depilated left cheek area (between the eye and ear ridge, this is a receptive field of trigeminal nerve) of each rat and was manifested as facial withdrawal following application of Von Frey filaments for mechanical allodynia and a heat lamp and acetone test for thermal hyperalgesia and allodynia respectively. […]

[2] = biological target: GABAA receptors containing the a3 subunit (Homo sapiens, UniProt P18507+P34903); conditions: cited from earlier work
[3] = system: electrocutaneous stimulation-induced facial pain rodent model; experiment: ES-induced facial pain model, prophylactic treatment, overall conclusion (mechanical and thermal tests); format: in vivo, Sprague-Dawley rats; conditions: po
Method: Unless stated otherwise, the same materials, methods, and provisions of Example 1 were applied to Example 2. The experimenter assessing the behavioral responses to drug administration is blinded to the drug treatment to the animals. Each treatment group is coded according the scheme below: • A. Vehicle (5% DMSO+30% HPBCD): 10 ml/kg • B. Compound 1: 0.3 mg/kg • C. Compound 1: 1 mg/kg • D. Compound 1: 3 mg/kg • F. Compound 1: 3 mg/kg—acute Second baseline measurement was carried out similarly to day 1, For each animal, the average of the two baseline nociceptive measurements was calculated within each pain modality (mechanical, heat- and cold pain), and used as baseline (“Baseline” point on figures). Then all rats in the above respective group (A-D) are given treated as mentioned. Group F received vehicle treatment. Treatment is continued once daily to each group same as Day 2 All rats were treated with respective treatment as per day 3-7. After 1 hr of treatment, each rat was subjected to 1 hr of electrocutaneous stimulation at depilated cheek (0.4 mA intensity, 10 ms duration, 1 s inter-pulse interval). […] Treatment effects on pain thresholds were evaluated 2- and 4 hours after administration by assessing mechanical- (Von Frey) and thermal (heat and cold) withdrawal threshold.

[4] = system: electrocutaneous stimulation-induced facial pain rodent model; experiment: ES-induced facial pain model, mechanical allodynia (Von Frey), prophylactic and acute treatment; format: in vivo, Sprague-Dawley rats
Method: Mechanical pain thresholds were assessed by measuring each rat's facial withdrawal threshold (g) in response to von Frey monofilaments (BioSeb). Starting monofilament: 3.84 (0.6 g), 50% facial withdrawal threshold was interpolated using the up-down method (Chaplan S R et al., 1994). Cutoff monofilament was 4.56 (4 g). Unless stated otherwise, the same materials, methods, and provisions of Example 1 were applied to Example 2. The required quantity of the compound is weighed and dissolved in 100% DMSO in a volume amounting to 5% of the total volume while placed on a stirrer. The weight of the compounds refers to the free base weights. Once the solution becomes clear/transparent, the remaining volume of the vehicle is added (30% HPBCD prepared in MQ water) to final concentrations of 0.03, 0.1, and 0.3 mg/ml for Compound 1. The solutions are kept on a stirrer before- and during administration of the compounds to the animals. The experimenter assessing the behavioral responses to drug administration is blinded to the drug treatment to the animals. Each treatment group is coded according the scheme below: • A. Vehicle (5% DMSO+30% HPBCD): 10 ml/kg • B. Compound 1: 0.3 mg/kg • C. Compound 1: 1 mg/kg • D. Compound 1: 3 mg/kg • F. Compound 1: 3 mg/kg—acute Second baseline measurement was carried out similarly to day 1, For each animal, the average of the two baseline nociceptive measurements was calculated within each pain modality (mechanical, heat- and cold pain), and used as baseline (“Baseline” point on figures). Then all rats in the above respective group (A-D) are given treated as mentioned. Group F received vehicle treatment. Treatment is continued once daily to each group same as Day 2 All rats were treated with respective treatment as per day 3-7. After 1 hr of treatment, each rat was subjected to 1 hr of electrocutaneous stimulation at depilated cheek (0.4 mA intensity, 10 ms duration, 1 s inter-pulse interval). Similar to day 1- and 2, all rats were acclimatized to test equipment followed by measurements of ES-induced facial mechanical- heat- and cold allodynia (“0” time point on figures). After measurement of hypersensitivity threshold, rats from group A-D received the vehicle and three doses of Compound 1 as mentioned above while group F received single acute dose of 3 mg/kg of Compound 1. Treatment effects on pain thresholds were evaluated 2- and 4 hours after administration by assessing mechanical- (Von Frey) and thermal (heat and cold) withdrawal threshold.

Chain of GABAA receptors containing the a3 subunit (P34903 29-492): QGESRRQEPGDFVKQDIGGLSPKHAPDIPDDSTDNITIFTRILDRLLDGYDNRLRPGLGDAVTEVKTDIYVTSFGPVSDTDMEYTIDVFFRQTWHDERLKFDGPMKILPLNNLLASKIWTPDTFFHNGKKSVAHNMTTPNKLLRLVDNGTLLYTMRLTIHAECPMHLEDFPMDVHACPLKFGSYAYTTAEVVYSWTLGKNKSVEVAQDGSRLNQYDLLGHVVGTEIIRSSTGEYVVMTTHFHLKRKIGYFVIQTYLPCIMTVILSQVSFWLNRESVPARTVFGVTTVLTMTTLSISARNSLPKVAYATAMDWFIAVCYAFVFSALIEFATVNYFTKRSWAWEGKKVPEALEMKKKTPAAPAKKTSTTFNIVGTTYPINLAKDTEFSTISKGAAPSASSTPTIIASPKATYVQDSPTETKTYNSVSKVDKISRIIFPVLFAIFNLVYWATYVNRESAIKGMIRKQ
Chain of GABAA receptors containing the a3 subunit (P47870 25-512 partner limits assumed): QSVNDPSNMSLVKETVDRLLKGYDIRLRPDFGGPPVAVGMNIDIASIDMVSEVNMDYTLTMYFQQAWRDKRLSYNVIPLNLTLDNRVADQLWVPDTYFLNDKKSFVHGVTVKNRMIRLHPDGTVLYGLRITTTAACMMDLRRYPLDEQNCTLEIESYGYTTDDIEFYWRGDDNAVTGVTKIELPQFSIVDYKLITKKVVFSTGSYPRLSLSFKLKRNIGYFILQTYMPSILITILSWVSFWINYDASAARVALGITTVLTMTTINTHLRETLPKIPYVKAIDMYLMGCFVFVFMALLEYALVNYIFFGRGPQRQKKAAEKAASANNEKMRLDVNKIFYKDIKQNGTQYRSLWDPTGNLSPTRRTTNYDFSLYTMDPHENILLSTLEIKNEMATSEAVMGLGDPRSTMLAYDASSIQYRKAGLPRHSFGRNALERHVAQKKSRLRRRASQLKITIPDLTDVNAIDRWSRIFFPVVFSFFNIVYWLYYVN
Chain of GABAA receptors containing the a3 subunit (P18507 40-475): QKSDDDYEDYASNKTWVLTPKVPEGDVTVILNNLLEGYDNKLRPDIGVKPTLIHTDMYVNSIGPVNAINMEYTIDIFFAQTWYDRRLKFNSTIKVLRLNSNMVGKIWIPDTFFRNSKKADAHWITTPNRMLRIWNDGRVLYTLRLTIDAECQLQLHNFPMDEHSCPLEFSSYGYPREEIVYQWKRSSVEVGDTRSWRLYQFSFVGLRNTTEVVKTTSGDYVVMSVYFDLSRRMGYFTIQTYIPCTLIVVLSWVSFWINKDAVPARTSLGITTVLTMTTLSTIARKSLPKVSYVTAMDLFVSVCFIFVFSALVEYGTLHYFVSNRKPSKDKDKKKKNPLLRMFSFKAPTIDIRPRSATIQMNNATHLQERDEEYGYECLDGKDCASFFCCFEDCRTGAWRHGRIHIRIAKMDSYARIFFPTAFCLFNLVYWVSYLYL

Which “analgesic effects (overall)” value [1] does the source give for `COc1ncc(-c2cccc(-n3cnc4cc(C(C)(C)O)cnc43)c2)c(OC)n1` [Compound 1, 2-(3-(3-(2,4-dimethoxypyrimidin-5-yl)phenyl)-3H-imidazo[4,5-b]pyridin-6-yl)propan-2-ol] here?
Its value is “significant analgesic effects in a dose dependent manner”.

What about the “modulation of GABAA receptors containing the a3 subunit” value [2] of the same compound?
The value was “positive allosteric modulator (PAM)”.

And the “analgesic effect compared with 10 mg/kg acute dose of Compound 1 or 30 mg/kg of Carbamazepine” value ([3]; once daily dose of 3 mg/kg, prophylactic)?
The value was “same analgesic effect”.

What about the “development of ES-induced sensitization (hypersensitivity to mechanical and thermal stimulus)” value ([3]; prophylactic treatment for 7 days, once daily dose) of the same compound?
Its value is “significantly reduced the development of ES-induced sensitization of the trigeminal sensory system”.

And the “effect size on mechanical allodynia, acute treatment compared to prophylactic treated animals” value ([4]; acute 3 mg/kg po)?
The value was “smaller”.

And the “effect on established mechanical allodynia vs vehicle” value (“effect … vs vehicle” below) ([4]; acute 3 mg/kg po on day 9, p<0.01 post 2 hrs, p<0.001 post 4 hrs)?
The value was “reversed the mechanical allodynia”.

What about the “effect … vs vehicle” value ([4]; prophylactic 0.3 mg/kg po plus additional dose on day 9, p>0.05 post 2 hrs, p<0.01 post 4 hrs) of the same compound?
The value was “reversed the mechanical allodynia dose dependently”.

What about the “effect … vs vehicle” value ([4]; prophylactic 1 mg/kg po plus additional dose on day 9, p<0.01 post 2 hrs, p<0.0001 post 4 hrs) of the same compound?
The value was “reversed the mechanical allodynia dose dependently”.

And the “development of mechanical allodynia vs vehicle” value ([4]; prophylactic 3 mg/kg po once daily for 7 days, day 9 at 0 time, p<0.001 vs vehicle)?
Its value is “significantly reduced the development of allodynia”.

And the “effect … vs vehicle” value ([4]; prophylactic 3 mg/kg po plus additional dose on day 9, p<0.0001 post 2 hrs and post 4 hrs)?
Its value is “reversed the mechanical allodynia dose dependently”.
